Laboratory results from patent US10259798B2, “High-purity magnesium lithospermate B and preparation method therefor” (priority 2014, dated 2019).
“Also recorded” adds a separate entry of the source. Where two headings read alike, the source gives them in different places. Marks after values point to notes of the source that are not given here.

Tests used:
[1] = test system: bleeding of severed tails of rats; test: Bleeding time of severed tails of rats; assay type: in vivo, SD rat; conditions: for Bleeding time: injection through femoral vein, tail severed 2 mins after administration, cut-off 1800 seconds
Description: Sample and control: lithospermic acid B, dipotassium lithospermate B, depside salts of Salvia miltiorrhiza (comprising 85% magnesium lithospermate B), magnesium lithospermate B, formulated with normal saline prior to use; normal saline as solvent control was from Jiangsu Yabang Pharmaceutical Co., Ltd.; the other reagents were all commercially available analytically pure products. Experimental animal: species and strain: SD rat; source: Shanghai SLAC Laboratory Animal Co., Ltd., Laboratory Animal Production License: SCXK (Shanghai) 2012-0002; number and gender: 50, male; animal weight: 120-200 g. Dosage setting: the dosages of lithospermic acid type reagents were set as 50 and 100 mg/kg in the present experiment; normal saline was given as additional solvent control. Tail severing time was 2 mins after administration. Administration route and administration dosage of sample and control: administration by injection through femoral vein, 2 ml/kg. Experimental method: the animals were water fasted overnight. 50 mg/kg pentobarbital sodium was intraperitoneally injected for anesthesia prior to the experiment. After anesthesia of the animals, markers were made at 4 mm from tips of rat tails with a marker pen and ruler. Drugs were injected through femoral veins of the animals. 2 mins later, the tails were swiftly severed at marked positions of the animal tails with a scalpel. The remained animal tails were rapidly inserted into prepared normal saline tubes in 37° C. water bath, and timing was started. The bleeding of the animal tails was observed. If no more bleeding was observed within 30 seconds, the time was recorded as coagulation time (unit: second) of the animals. […] Observation indicator and observation time: the indicator was the bleeding time. Statistical method: the experimental data was represented with x±SD; GraphPad Prism 5 1 way ANOVA was applied for significance test.

[2] = test system: cardiac myoblast cell H9C2; assay type: cell-based
Description: (§1) Sample and control: magnesium lithospermate B (prepared according to Example 6 of the present application), lithospermic acid B (lab made; lot number: 20131017), formulated with normal saline prior to use; normal saline as solvent control was derived from Jiangsu Yabang Pharmaceutical Co., Ltd.; the other reagents were all commercially available analytically pure products. Cell lines and reagents: cardiac myoblast (H9C2); Microvascular Endothelial Cell (HMEC-1); Lactic Dehydrogenase Cytotoxicity Detection Kit, Beyotime Biotechnology Institute. Dosage setting: the dosages of lithospermic acid B and magnesium lithospermate B were set at 10, 50, 100, 200, 400, 800, 1200, 1600 μM and the incubation time was set as 24 hours in the present experiment. Experimental method: H9C2 cells and HMEC-1 cells were respectively incubated in 10% FBS containing low saccharide DMEM medium and MCDB-131 medium, at 37° C. and 5% CO2. Cells were seeded in a 96-well culture plate, which was added with different concentrations of lithospermic acid B solutions and magnesium lithospermate B solutions on the next day (about 80% fusion). After incubation for 24 hours in total, the detection was conducted according to instructions of the Lactic Dehydrogenase Cytotoxicity Detection Kit. Observation indicator and observation time: the observation indicator is the level of lactic dehydrogenase in cells; cell survival rate was represented by intracellular LDH content ratio, i.e. (absorbance of treated sample well−absorbance of sample control well)/(absorbance of cells with maximum enzymatic activity−absorbance of sample control well)×100. Statistical method: the data was presented with average±standard derivation (mean±SD); the comparison of two groups of data was statistically analyzed by student-t test method, P<0.05 indicating statistical difference.

endothelial cell HMEC-1 = assay type: cell-based
Description: as §1

[3] = assay type: physicochemical; conditions: for 0 h peak area / 2 h peak area / 4 h peak area / 6 h peak area / 8 h peak area / 12 h peak area / 24 h peak area: HPLC 288 nm; for 0 h peak area: 1 mg/mL aqueous solution at 25° C. diluted 10 times, MLB of Example 1; for 2 h peak area / 4 h peak area / 6 h peak area / 8 h peak area / 12 h peak area / 24 h peak area: aqueous solution; for Average peak area: average over 0-24 h
Description: The chemical stability of magnesium lithospermate B was investigated by detecting the variation of peak areas (HPLC). Specific experimental method: lithospermic acid B (lab-made; lot number: 20131017) and magnesium lithospermate B prepared in Example 1 of the present invention were respectively formulated to 1 mg/mL aqueous solution at 25° C., which was then diluted 10 times. The variation of peak areas of lithospermic acid B at 288 nm for durations of 0, 2, 4, 6, 8, 12, and 24 hours were detected by HPLC, respectively. 10 microliters was injected for each time.

[4] = test system: lipid oxidation in rat liver microsome; test: In vitro anti-lipid peroxidation experiment (MDA, TBA method); assay type: biochemical, SD rat; conditions: 100 μM, 37° C. 90 mins
Description: Sample and control: magnesium lithospermate B (prepared according to Example 6 of the present application), lithospermic acid B (lab-made; lot number: 20131017), formulated with normal saline prior to use; normal saline as solvent control was from Jiangsu Yabang Pharmaceutical Co., Ltd.; the other reagents were all commercially available analytically pure products. Tris base, potassium chloride, dipotassium phosphate, glycerol, etc. (Sinopharm Chemical Reagent Co., Ltd.); Coomassie brilliant blue G-250, bovine serum albumin (Shanghai Lanji Technology Development Co., Ltd.).
Experimental animal: species and strain: SD rat; source: Shanghai SLAC Laboratory Animal Co., Ltd., Laboratory Animal Production License: SCXK (Shanghai) 2012-0002; number and gender: 2, male; animal weight: 200-250 g.
Steps for preparing liver microsome: liver tissue was taken out, cut into pieces, washed with Buffer A, wiped up, and weighed for 8 g. By adding 10 ml Buffer A per gram of tissue, 80 ml was added in total, followed by automatic homogenization and further homogenization with manual homogenizer. The homogenate was centrifuged at 10,000 g and 4° C. for 30 mins, and the supernatant was taken out. The supernatant was centrifuged at 105,000 g and 4° C. for 60 mins. The resulting precipitate is the microsome, which was then added with Buffer B to obtain microsome suspension, aliquoted into 2 ml small tubes, and stored in −70° C. refrigerator for further use. Determination of protein content: using Bradford method (Coomassie brilliant blue G-250 method).
Determination of lipid oxidation in rat liver microsome: 1 ml liver microsome was added into each tube, followed by addition of different concentrations of reagent solutions. The mixtures were well shaken and incubated in 37° C. water bath for 90 mins. After the tubes were taken out, 1 ml 10% trichloroacetic acid (TCA) and 1 ml 0.67% thiobarbituric acid (TBA) were added into each tube. The tubes were placed in boiling water bath for 15 mins, then cooled with running water and centrifuged at 3000 rpm for 10 mins. The supernatants were taken for colorimetric determination at 532 nm. The contents were calculated with standard tetraethoxypropane and represented with content per mg protein.
Calculation formula: MDA content (nmol/mg prot)={[(Asample−Ablank)÷(Astandard−Ablank)]×10 nmol/ml}÷protein content Inhibition rate %=(MDAblank−MDAsample)/MDAblank×100%

SMILES | Bleeding time ([1]; 50 mg/kg) | Bleeding time ([1]; 100 mg/kg) | Toxic effect at high dosages, in words [2] | Toxic effect at high dosages, in words (endothelial cell HMEC-1) | 0 h peak area [3] | 2 h peak area [3] | 4 h peak area [3] | 6 h peak area [3] | 8 h peak area [3] | 12 h peak area [3] | 24 h peak area [3] | Average peak area [3] | Inhibition rate (anti-lipid peroxidation, MDA) ([4]; n = 3) [%] | other results
O=C(C=Cc1ccc(O)c2c1C(C(=O)OC(Cc1ccc(O)c(O)c1)C(=O)[O-])C(c1ccc(O)c(O)c1)O2)OC(Cc1ccc(O)c(O)c1)C(=O)[O-].[K+].[K+] (stereo not shown) [Dipotassium lithospermate B, dipotassium lithospermate B, reference compound] | 827 ± 70**^$$ second | 1301 ± 189**^$$ second |  |  |  |  |  |  |  |  |  |  |  | 
O=C(/C=C/c1ccc(O)c2c1[C@H](C(=O)O[C@H](Cc1ccc(O)c(O)c1)C(=O)O)[C@@H](c1ccc(O)c(O)c1)O2)O[C@H](Cc1ccc(O)c(O)c1)C(=O)O [Lithospermic acid B, lithospermic acid B, reference compound] | 869 ± 71 s | 1078 ± 137 s | toxic effect | toxic effect | 3957 | 3991 | 3992 | 3983 | 4002 | 3990 | 4000 | 3987.8 | 86.42 | Inhibition rate (anti-lipid peroxidation, MDA) ([4]; n = 3, listed as lithospermic acid B): around 85%
O=C(/C=C/c1ccc(O)c2c1[C@H](C(=O)OC(Cc1ccc(O)c(O)c1)C(=O)[O-])C(c1ccc(O)c(O)c1)O2)O[C@H](Cc1ccc(O)c(O)c1)C(=O)[O-].[Mg+2] (stereo partly shown) [Magnesium lithospermate B, magnesium lithospermate B] | 1098 ± 84 s | 1800 ± 0 s | toxic effect | toxic effect | 3611 | 3632 | 3614 | 3636 | 3629 | 3628 | 3599 | 3621.3 | 84.41 | Concentrations that significantly decreased the intracellular LDH content as compared with normal control wells ([2]; rat, 24 h): 800, 1200, 1600 μM; Intracellular LDH content percent, H9C2 cell ([2]; rat, 24 h, 10 μM): 101.42 ± 2.00%; Intracellular LDH content percent, H9C2 cell ([2]; rat, 24 h, 50 μM): 99.97 ± 1.43%; Intracellular LDH content percent, H9C2 cell ([2]; rat, 24 h, 100 μM): 101.25 ± 2.79%; Intracellular LDH content percent, H9C2 cell ([2]; rat, 24 h, 200 μM): 102.39 ± 1.37%; Intracellular LDH content percent, H9C2 cell ([2]; rat, 24 h, 400 μM): 102.75 ± 3.07%; Intracellular LDH content percent, H9C2 cell ([2]; rat, 24 h, 800 μM): 37.72 ± 7.52 %; Intracellular LDH content percent, H9C2 cell ([2]; rat, 24 h, 1200 μM): 21.59 ± 2.86 %; Intracellular LDH content percent, H9C2 cell ([2]; rat, 24 h, 1600 μM): 14.59 ± 3.05 %; Concentrations that significantly decreased the intracellular LDH content as compared with normal control wells (endothelial cell HMEC-1; human, 24 h): 1200 and 1600 μM; Intracellular LDH content percent, HMEC-1 cell (endothelial cell HMEC-1; human, 24 h, 10 μM): 99.70 ± 3.88%; Intracellular LDH content percent, HMEC-1 cell (endothelial cell HMEC-1; human, 24 h, 50 μM): 101.05 ± 4.77%; Intracellular LDH content percent, HMEC-1 cell (endothelial cell HMEC-1; human, 24 h, 100 μM): 100.96 ± 4.01%; Intracellular LDH content percent, HMEC-1 cell (endothelial cell HMEC-1; human, 24 h, 200 μM): 98.58 ± 0.24%; Intracellular LDH content percent, HMEC-1 cell (endothelial cell HMEC-1; human, 24 h, 400 μM): 97.8 ± 1.03%; Intracellular LDH content percent, HMEC-1 cell (endothelial cell HMEC-1; human, 24 h, 800 μM): 96.93 ± 1.37%; Intracellular LDH content percent, HMEC-1 cell (endothelial cell HMEC-1; human, 24 h, 1200 μM): 96.17 ± 1.00 %; Intracellular LDH content percent, HMEC-1 cell (endothelial cell HMEC-1; human, 24 h, 1600 μM): 84.28 ± 3.28 %; Bleeding time / activity compared with the other test substances, in words ([1]; same dosage, intravenous injection): remarkably longer than lithospermic acid B administration group; also recorded: significantly longer than dipotassium lithospermate B and depside salts of Salvia miltiorrhiza; also recorded: activity superior to the free acid (lithospermic acid B), other salts (dipotassium lithospermate B), and low purity mixtures (salvianolates of Salvia miltiorrhiza); also recorded: better activities than free acid (lithospermic acid B), other salt (dipotassium lithospermate B), and low purity mixture (depside salts of Salvia miltiorrhiza); Inhibition rate (anti-lipid peroxidation, MDA) ([4]; n = 3, listed as magnesium lithospermate B): around 85%
